Reference: patent US4916069A, “Enzyme and process for producing the same” (priority 1986, dated 1990)

Experiments:
Assay type in all cases: biochemical, Gluconobacter oxydans UV-10
L-sorbose dehydrogenase [1] = molecular target: T1, L-sorbose dehydrogenase (Gluconobacter oxydans, UniProt Q47944); details: 0.1 ml of 1M substrate solution instead of L-sorbose, DCIP, 25° C., pH 7.0
Experimental: (§1) Enzyme assay was performed at 25° C. by measuring the decrease of absorbance at 600 nm of DCIP spectrophotometrically. One unit of enzyme activity was defined as the amount of enzyme which catalyzed the reduction of 1 μmole of DCIP per minute. The extinction coefficient of DCIP at pH 7.0 was taken as 14.5 mM^-1. The basal reaction mixture is shown below. The mixture was prepared just before the assay.
(§2) A cuvette with 1 cm light path contained 0.4 ml of basal mixture, 0.1 ml of 1M L-sorbose, enzyme solution, and water in a final volume of 0.51 ml. A reference cuvette contains all components except the substrate. The reaction was initiated by the addition of the substrate. Enzyme activity was measured as the initial reduction rate of DCIP.
Substrate specificity of the enzyme was determined using the same enzyme assay method as described in the above (1) except that 0.1 ml of each of the various substrate solutions (1M) was used instead of L-sorbose.

L-sorbose dehydrogenase [2] = molecular target: T1, L-sorbose dehydrogenase; assay: Effect of metal ions on the enzyme activity; details: for Effect of metal ion on the enzyme activity (in words): summary of Table 6
Experimental: as §1, §2
Using the assay procedure described under (1) above, the effect of various metal ions on the enzyme activity was examined. Co^2+ and Fe^3+ were stimulative and Cu^2+ was inhibitory.

L-sorbose dehydrogenase [3] = molecular target: T1, L-sorbose dehydrogenase; assay: biochemical; details: for Effect of inhibitor on the enzyme activity (in words): summary of Table 7
Experimental: as §1, with “The extinction coefficient of DCIP at pH 7.0 was taken as 14.5 mM^-1.” left out
as §2

L-sorbose dehydrogenase [4] = molecular target: T1, L-sorbose dehydrogenase; assay: Measurement of the Km value for L-sorbose; details: L-sorbose 0.5 mM to 320 mM
Experimental: as §1, §2
In the procedure described under (2) above, the velocities of oxidising reactions with varying concentrations of L-sorbose from 0.5 mM to 320 mM were measured to determine the Km value for L-sorbose. The maximum reaction velocity was found at the substrate concentration of about 200 mM. Apparent Michaelis constant (Km) was calculated to be 102±10 mM with DCIP as an electron acceptor.

T1 sequence (Q47944 whole entry): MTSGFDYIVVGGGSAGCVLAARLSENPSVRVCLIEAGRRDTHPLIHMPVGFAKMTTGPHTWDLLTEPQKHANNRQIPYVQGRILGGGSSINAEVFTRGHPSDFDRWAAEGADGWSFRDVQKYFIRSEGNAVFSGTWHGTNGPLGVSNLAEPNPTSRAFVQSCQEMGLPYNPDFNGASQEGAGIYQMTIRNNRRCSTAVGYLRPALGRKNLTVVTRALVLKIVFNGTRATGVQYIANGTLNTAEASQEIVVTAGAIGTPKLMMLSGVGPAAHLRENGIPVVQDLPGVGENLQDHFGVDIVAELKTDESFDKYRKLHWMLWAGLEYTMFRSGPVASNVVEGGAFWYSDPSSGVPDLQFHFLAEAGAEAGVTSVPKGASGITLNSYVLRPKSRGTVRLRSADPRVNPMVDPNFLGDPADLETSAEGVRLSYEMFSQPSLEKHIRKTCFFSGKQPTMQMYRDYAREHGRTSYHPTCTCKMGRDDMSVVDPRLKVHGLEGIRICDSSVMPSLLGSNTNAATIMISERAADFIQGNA

Question: O=C([O-])[C@@H](O)[C@H](O)[C@@H](O)[C@H](O)CO.O=C([O-])[C@@H](O)[C@H](O)[C@@H](O)[C@H](O)CO.[Ca+2] [Ca-Idonate] was tested. Which “Relative enzyme activity (%)” value (L-sorbose dehydrogenase [1]) did it give?
Answer: 0%

Question: [Ca+2].[Cl-].[Cl-] [CaCl2] was tested. Which “Relative activity (%)” value (L-sorbose dehydrogenase [2]; metal 0.4 mM) did it give?
Answer: 100%

Question: And the “Relative activity (%)” value (L-sorbose dehydrogenase [2]; metal 0.8 mM)?
Answer: 100%

Question: What does the source list for O.O.O.O.O.O.[Cl-].[Cl-].[Co+2] [CoC1 · 6H2O]?
Answer: Relative activity (%) (L-sorbose dehydrogenase [2]; metal 0.4 mM): 109.2%; Relative activity (%) (L-sorbose dehydrogenase [2]; metal 0.8 mM): 118.4%

Question: Which “Effect of metal ion on the enzyme activity (in words)” value (“Effect of metal ion” for short) (L-sorbose dehydrogenase [2]) does the source give for [Co+2] [Co^2+] here?
Answer: stimulative

Question: O.O=[N+]([O-])[O-].O=[N+]([O-])[O-].[Cu+2] [Cu(NO3)2 · H2 O] was tested. Which “Relative activity (%)” value (L-sorbose dehydrogenase [2]; metal 0.3 mM) did it give?
Answer: 2.27%

Question: For O.O.[Cl][Cu][Cl] [CuCl2 · 2H2 O], which “Relative activity (%)” value (L-sorbose dehydrogenase [2]; metal 0.4 mM) is on record?
Answer: 0%

Question: With O.O.O.O.O.O=S(=O)([O-])[O-].[Cu+2] [CuSO4 · 5H2 O] as the compound, how does the “Relative activity (%)” value (L-sorbose dehydrogenase [2]; metal 0.08 mM) read?
Answer: 30.9%

Question: Which “Relative activity (%)” value (L-sorbose dehydrogenase [2]; metal 0.8 mM) does the source give for O=S(=O)([O-])[O-].[Cu+2] [CuSO4] here?
Answer: 0%

Question: For [Cu+2] [Cu^2+], which “Effect of metal ion” value (L-sorbose dehydrogenase [2]) is on record?
Answer: inhibitory

Question: Which inhibition at 940 µM (L-sorbose dehydrogenase [3]) does the source give for O=C(O)CN(CCN(CC(=O)O)CC(=O)O)CC(=O)O [EDTA] here?
Answer: 0%

Question: What about the inhibition at 5200 µM (L-sorbose dehydrogenase [3]) of the same compound?
Answer: 13.3%

Question: With [Fe+3] [Fe^3+] as the compound, how does the “Effect of metal ion” value (L-sorbose dehydrogenase [2]) read?
Answer: stimulative

Question: With O.O.O.O.O.O.[Cl-].[Cl-].[Mg+2] [MgCl2 · 6H2 O] as the compound, how does the “Relative activity (%)” value (L-sorbose dehydrogenase [2]; metal 0.8 mM) read?
Answer: 83.3%

Question: What does the source list for O.O.O.O.O.O.O.O=S(=O)([O-])[O-].[Mg+2] [MgSO4 · 7H2 O]?
Answer: Relative activity (%) (L-sorbose dehydrogenase [2]; metal 0.4 mM): 100%; Relative activity (%) (L-sorbose dehydrogenase [2]; metal 0.8 mM): 100%

Question: What does the source list for O.O.O.O.[Cl][Mn][Cl] [MnCl2 · 4H2 O]?
Answer: Relative activity (%) (L-sorbose dehydrogenase [2]; metal 0.4 mM): 100%; Relative activity (%) (L-sorbose dehydrogenase [2]; metal 0.9 mM): 98.3%

Question: O.O=S(=O)([O-])[O-].[Mn+2] [MnSO4 · H2 O] was tested. Which “Relative activity (%)” value (L-sorbose dehydrogenase [2]; metal 0.4 mM) did it give?
Answer: 100%

Question: Which inhibition at 1850 µM (L-sorbose dehydrogenase [3]) does the source give for O=C(O)CI [Mono-Iodo acetate] here?
Answer: 0%

Question: What about the inhibition at 4240 µM (L-sorbose dehydrogenase [3]) of the same compound?
Answer: 34.6%

Question: What about the inhibition at 9370 µM (L-sorbose dehydrogenase [3]) of the same compound?
Answer: 68.5%

Question: What about the “Effect of inhibitor on the enzyme activity (in words)” value (“Effect of inhibitor” below) (L-sorbose dehydrogenase [3]) of the same compound?
Answer: inhibited the enzyme activity partially

Question: For CCN1C(=O)C=CC1=O [N-Ethyl-maleimide], which inhibition at 1850 µM (L-sorbose dehydrogenase [3]) is on record?
Answer: 0%

Question: And the inhibition at 4240 µM (L-sorbose dehydrogenase [3])?
Answer: 0%

Question: Which results are given for O.O.O.O.O.O.O.O=[As]([O-])([O-])O.[Na+].[Na+] [Na2 HAs · O4 · 7H2 O]?
Answer: Inhibition (%) (L-sorbose dehydrogenase [3]; inhibitor 1.85 mM): 0%; Inhibition (%) (L-sorbose dehydrogenase [3]; inhibitor 4.24 mM): 0%

Question: Which results are given for O.O.[Na+].[Na+].[O]=[Mo](=[O])([O-])[O-] [Na2 MoO4 · 2H2 O]?
Answer: Relative activity (%) (L-sorbose dehydrogenase [2]; metal 0.3 mM): 86.1%; Relative activity (%) (L-sorbose dehydrogenase [2]; metal 1.06 mM): 69.6%

Question: What does the source list for O.O.O.O.O.O.O=S(=O)([O-])[O-].[Ni+2] [NiSO4 · 6H2 O]?
Answer: Relative activity (%) (L-sorbose dehydrogenase [2]; metal 0.4 mM): 100%; Relative activity (%) (L-sorbose dehydrogenase [2]; metal 0.9 mM): 100%

Question: For O=C(O)c1cc[c]([Hg][Cl])cc1 [PCMB, p-chloro-mercuri-benzoate], which “Inhibition (%)” value (L-sorbose dehydrogenase [3]; inhibitor 0.02 mM) is on record?
Answer: 0%

Question: What about the “Inhibition (%)” value (L-sorbose dehydrogenase [3]; inhibitor 0.04 mM) of the same compound?
Answer: 0%

Question: What about the “Inhibition (%)” value (L-sorbose dehydrogenase [3]; inhibitor 0.17 mM) of the same compound?
Answer: 0%

Question: How did the inhibition at 1850 µM (L-sorbose dehydrogenase [3]) turn out when C=C[C@H]1C[N@@]2CC[C@H]1C[C@H]2[C@H](O)c1ccnc2ccc(OC)cc12 [Quinine] was run?
Answer: 0%

Question: And the inhibition at 4240 µM (L-sorbose dehydrogenase [3])?
Answer: 30.5%

Question: And the “Effect of inhibitor” value (L-sorbose dehydrogenase [3])?
Answer: inhibited the enzyme activity partially

Question: [N-]=[N+]=[N-] [Sodium Azide] was tested. Which inhibition at 1850 µM (L-sorbose dehydrogenase [3]) did it give?
Answer: 0%

Question: What about the inhibition at 4240 µM (L-sorbose dehydrogenase [3]) of the same compound?
Answer: 0%

Question: What does the source list for [F-].[Na+] [Sodium Fluoride]?
Answer: Inhibition (%) (L-sorbose dehydrogenase [3]; inhibitor 1.85 mM): 10.3%; Inhibition (%) (L-sorbose dehydrogenase [3]; inhibitor 4.24 mM): 10.3%; Inhibition (%) (L-sorbose dehydrogenase [3]; inhibitor 9.37 mM): 22.1%; Effect of inhibitor on the enzyme activity (in words) (L-sorbose dehydrogenase [3]): inhibited the enzyme activity partially

Question: With O=C(O)CF [Sodium Fluoro acetate] as the compound, how does the inhibition at 1850 µM (L-sorbose dehydrogenase [3]) read?
Answer: 0%

Question: What about the inhibition at 4240 µM (L-sorbose dehydrogenase [3]) of the same compound?
Answer: 8.6%

Question: What about the inhibition at 9370 µM (L-sorbose dehydrogenase [3]) of the same compound?
Answer: 26.5%

Question: And the “Effect of inhibitor” value (L-sorbose dehydrogenase [3])?
Answer: inhibited the enzyme activity partially

Question: For O=C(CO)[C@@H](O)[C@H](O)[C@@H](O)CO [Sorbose, L-sorbose], which “Substrate concentration of maximum reaction velocity” value (L-sorbose dehydrogenase [4]) is on record?
Answer: about 200 mM

Question: Which results are given for O.O.O.O.O.O.O.O=S(=O)([O-])[O-].[Zn+2] [ZnSO4 · 7H2 O]?
Answer: Relative activity (%) (L-sorbose dehydrogenase [2]; metal 0.4 mM): 100%; Relative activity (%) (L-sorbose dehydrogenase [2]; metal 0.9 mM): 100%

Question: Fe(SO4)3 .multidot. xH2 O was tested. Which “Relative activity (%)” value (L-sorbose dehydrogenase [2]; metal 0.4 mM) did it give?
Answer: 121.3%

Question: And the “Relative activity (%)” value (L-sorbose dehydrogenase [2]; metal 0.9 mM)?
Answer: 106.4%

Question: How did the “Relative activity (%)” value (L-sorbose dehydrogenase [2]; metal 0.4 mM) turn out when TiCl was run?
Answer: 100%

Question: And the “Relative activity (%)” value (L-sorbose dehydrogenase [2]; metal 0.8 mM)?
Answer: 100%

Question: And the “Relative activity (%)” value (L-sorbose dehydrogenase [2]; metal 1.8 mM)?
Answer: 100%
